According to patent US20120157471A1, “BENZIMIDAZOLE DERIVATIVES” (PFIZER INC., priority 2009, published 2012):

Tests used:
Gli-Luc/MEF cells (Smo) = assay: Gli-Luc/MEF assay (Shh-stimulated luciferase reporter under the Gli response element); assay type: cell-based, mouse; settings: Mus musculus, MEF, 48 h
Method in brief: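 IC50 derived from luminescence (Bright-Glo) after 48 h at 37° C, 5% CO2, with compound at […] (3-fold dilutions) added together with mouse Shh at 2 μg/mL final. Cells: MEFs from Gli-Luc transgenic mice.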

[1] = target: T1, human Smo (amino acids 181-787) (Homo sapiens, UniProt Q99835); assay: Smo radioligand competition binding assay (displacement of 3H-PF-03451358 from HEK293 membranes); settings: for inhibition at 0.05 µM: 0.05 μM test compound, displacement of 3H-PF-03451358, read-out: SMO % inh. @ 0.05 μM; for IC50: radioligand competition binding
T1 construct: expressed in transfected cells; membrane preparation
Method in brief: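 Displacement of 3 nM tritiated PF-03451358 measured by filtration and scintillation counting after 2 h at room temperature, using 40 μg/well HEK293 membranes bearing cell-surface Smo 181-787, pH 7.5 buffer. Specific binding defined against 30 μM unlabelled ligand; IC50 via variable-slope sigmoidal fit.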

T1 sequence (Q99835 181-787): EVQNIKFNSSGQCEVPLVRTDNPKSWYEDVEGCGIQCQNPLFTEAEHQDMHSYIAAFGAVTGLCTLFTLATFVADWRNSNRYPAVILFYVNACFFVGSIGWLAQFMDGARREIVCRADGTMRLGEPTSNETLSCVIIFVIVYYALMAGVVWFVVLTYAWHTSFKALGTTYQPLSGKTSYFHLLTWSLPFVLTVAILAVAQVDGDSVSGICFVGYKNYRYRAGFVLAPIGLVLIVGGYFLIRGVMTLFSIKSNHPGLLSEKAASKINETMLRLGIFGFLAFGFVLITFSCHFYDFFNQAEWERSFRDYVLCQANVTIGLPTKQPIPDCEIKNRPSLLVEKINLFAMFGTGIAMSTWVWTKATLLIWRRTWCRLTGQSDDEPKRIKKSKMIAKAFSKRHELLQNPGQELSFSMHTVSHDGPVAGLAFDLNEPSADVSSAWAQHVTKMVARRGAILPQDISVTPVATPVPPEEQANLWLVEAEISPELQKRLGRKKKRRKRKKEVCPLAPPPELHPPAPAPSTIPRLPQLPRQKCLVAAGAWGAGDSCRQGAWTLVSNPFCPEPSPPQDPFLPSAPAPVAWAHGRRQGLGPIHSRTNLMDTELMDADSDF

Structure (SMILES) | IC50 (Gli-Luc/MEF cells (Smo)) [nM] | inhibition at 0.05 µM [1] [%] | IC50 [1] [nM]
Cn1c(-c2cc(N3CCC(S(C)(=O)=O)CC3)ncc2Cl)nc2ccccc21 [Example A-20, 2-{5-chloro-2-[4-(methylsulfonyl)piperidin-1-yl]pyridin-4-yl}-1-methyl-1H-benzimidazole] | 8 | 87 | 19
COC(=O)NC1CCN(c2cc(-c3nc4ccccc4n3C)c(Cl)cn2)CC1 [Example A-32, methyl {1-[5-chloro-4-(1-methyl-1H-benzimidazol-2-yl)pyridin-2-yl]piperidin-4-yl}carbamate] | 1 | 89 | 7
Cn1c(-c2cc(N3CCn4c(nnc4C(F)F)C3)ncc2Cl)nc2ccccc21 [Example A-101, 7-[5-chloro-4-(1-methyl-1H-benzimidazol-2-yl)pyridin-2-yl]-3-(difluoromethyl)-5,6,7,8-tetrahydro[1,2,4]triazolo[4,3-a]pyrazine] | 95 | 81 | 103
Cn1c(-c2nc(N3CCN(C(=O)CO)CC3)ncc2Cl)nc2ccccc21 [Example C-18, 2-{4-[5-chloro-4-(1-methyl-1H-benzimidazol-2-yl)pyrimidin-2-yl]piperazin-1-yl}-2-oxoethanol] | 36 | 98 | 15
Cn1c(-c2cc(N3CCOCC(Cc4cncnc4)C3)ncc2Cl)nc2ccccc21 (centres unmarked) [Example A-46, 2-{5-chloro-2-[6-(pyrimidin-5-ylmethyl)-1,4-oxazepan-4-yl]pyridin-4-yl}-1-methyl-1H-benzimidazole] | 9 | 101 | 14
Cn1c(-c2ccnc(N3CCC(N4CCOC4=O)CC3)c2)nc2ccccc21 [Example A-15, 3-{1-[4-(1-methyl-1H-benzimidazol-2-yl)pyridin-2-yl]piperidin-4-yl}-1,3-oxazolidin-2-one] | 180 | 53 | 404
Cn1c(-c2cc(N3[C@@H]4CC[C@H]3CN(C(=O)CO)C4)ncc2Cl)nc2ccccc21 [Example A-207, 2-{(1R,5S)-8-[5-chloro-4-(1-methyl-1H-benzimidazol-2-yl)pyridin-2-yl]-3,8-diazabicyclo[3.2.1]oct-3-yl}-2-oxoethanol] | 17.3 | 94 | 10
Cn1c(-c2cc(N3CC[C@@H](O)[C@@H](O)C3)ncc2Cl)nc2ccccc21 [Example A-96, (3S,4R)-1-[5-chloro-4-(1-methyl-1H-benzimidazol-2-yl)pyridin-2-yl]piperidine-3,4-diol] | 16 | 86 | 46
CCS(=O)(=O)N1CCN(c2cc(-c3nc4ccccc4n3C)c(F)cn2)CC1 [Example D-5, 2-{2-[4-(ethylsulfonyl)piperazin-1-yl]-5-fluoropyridin-4-yl}-1-methyl-1H-benzimidazole] | 17 | 97 | 18
CC(C)NC(=O)NC1CN(c2cc(-c3nc4ccccc4n3C)c(Cl)cn2)C1 [Example A-188, 1-{1-[5-chloro-4-(1-methyl-1H-benzimidazol-2-yl)pyridin-2-yl]azetidin-3-yl}-3-isopropylurea] | 10 | 97 | 15
CNC(=O)N1CCN(c2cc(-c3nc4ccccc4n3C)c(Cl)cn2)CC1 [Example A-3, 4-[5-chloro-4-(1-methyl-1H-benzimidazol-2-yl)pyridin-2-yl]-N-methylpiperazine-1-carboxamide] | 9 | 93 | 14.1
Cn1c(-c2cc(N3CCC(C(=O)NC4CCOC4)CC3)ncc2Cl)nc2ccccc21 (centres unmarked) [Example A-208, 1-[5-chloro-4-(1-methyl-1H-benzimidazol-2-yl)pyridin-2-yl]-N-(tetrahydrofuran-3-yl)piperidine-4-carboxamide] | 18.1 | 102 | 23
Cn1c(-c2cc(N3CCC(O)(CO)CC3)ncc2Cl)nc2ccccc21 [Example A-69, 1-[5-chloro-4-(1-methyl-1H-benzimidazol-2-yl)pyridin-2-yl]-4-(hydroxymethyl)piperidin-4-ol] | 10 | 94 | 27
Cc1cn(C2CN(c3cc(-c4nc5ccccc5n4C)c(Cl)cn3)C2)c(=O)[nH]c1=O [Example A-121, 1-{1-[5-chloro-4-(1-methyl-1H-benzimidazol-2-yl)pyridin-2-yl]azetidin-3-yl}-5-methylpyrimidine-2,4(1H,3H)-dione] | 94 | 62 | –
Cc1cnc(N2CCC(S(C)(=O)=O)CC2)cc1-c1nc2ccccc2n1C [Example E-5, 1-methyl-2-{5-methyl-2-[4-(methylsulfonyl)piperidin-1-yl]pyridin-4-yl)-1H-benzimidazole] | 58.9 | 89 | 59
CN(C1CN(c2cc(-c3nc4ccccc4n3C)c(Cl)cn2)C1)S(C)(=O)=O [Example A-149, N-{1-[5-chloro-4-(1-methyl-1H-benzimidazol-2-yl)pyridin-2-yl]azetidin-3-yl}-N-methylmethanesulfonamide] | 8 | 95 | 14
Cn1c(-c2cc(N3CCC4(CC3)CC(O)CCO4)ncc2Cl)nc2ccccc21 (centres unmarked) [Example A-204, 9-[5-chloro-4-(1-methyl-1H-benzimidazol-2-yl)pyridin-2-yl]-1-oxa-9-azaspiro[5.5]undecan-4-ol] | 12.6 | 96 | 19
CC1CC2(CCN1c1cc(-c3nc4ccccc4n3C)c(Cl)cn1)CNC(=O)C2 (stereo in doubt) [Example A-48, (5R,7S)-8-[5-chloro-4-(1-methyl-1H-benzimidazol-2-yl)pyridin-2-yl]-7-methyl-2,8-diazaspiro[4.5]decan-3-one] | 7 | 100 | 7
Cn1c(-c2cc(N3C[C@@H](CO)[C@@H](CCO)C3)ncc2Cl)nc2ccccc21 [Example A-111, 2-[(3R,4S)-1-[5-chloro-4-(1-methyl-1H-benzimidazol-2-yl)pyridin-2-yl]-4-(hydroxymethyl)pyrrolidin-3-yl]ethanol] | 25 | 73 | 116
Cn1c(-c2cc(N3CCN(C=O)CC3)ncc2Cl)nc2cccnc21 [Example A-170, 4-[5-chloro-4-(3-methyl-3H-imidazo[4,5-b]pyridin-2-yl)pyridin-2-yl]piperazine-1-carbaldehyde] | 118 | 81 | 140
CN(CC(C)(C)O)c1cc(-c2nc3ccccc3n2C)c(Cl)cn1 [Example A-209, 1-{[5-chloro-4-(1-methyl-1H-benzimidazol-2-yl)pyridin-2-yl](methyl)amino}-2-methylpropan-2-ol] | 19.6 | 97 | 18
Cn1c(-c2cc(N3CCC(S(C)(=O)=O)C3)ncc2Cl)nc2ccccc21 (centres unmarked) [Example A-24, 2-{5-chloro-2-[3-(methylsulfonyl)pyrrolidin-1-yl]pyridin-4-yl}-1-methyl-1H-benzimidazole] | 20 | 82 | 54
CN(CC(N)=O)c1cc(-c2nc3ccccc3n2C)c(Cl)cn1 [Example A-186, N~2~-[5-chloro-4-(1-methyl-1H-benzimidazol-2-yl)pyridin-2-yl]-N~2~-methylglycinamide] | 65 | 78 | 97
Cc1cnc(N2CCC(CS(C)(=O)=O)CC2)cc1-c1nc2ccccc2n1C [Example E-2, 1-methyl-2-(5-methyl-2-{4-[(methylsulfonyl)methyl]piperidin-1-yl}pyridin-4-yl)-1H-benzimidazole] | 20.9 | 99 | 18
CNC(=O)N(C)C1CN(c2cc(-c3nc4ccccc4n3C)c(Cl)cn2)C1 [Example A-151, 1-{1-[5-chloro-4-(1-methyl-1H-benzimidazol-2-yl)pyridin-2-yl]azetidin-3-yl}-1,3-dimethylurea] | 26 | 83 | 90
CCC(=O)N1CCN(c2cc(-c3nc4ccccc4n3C)c(F)cn2)CC1 [Example D-4, 2-[5-fluoro-2-(4-propionylpiperazin-1-yl)pyridin-4-yl]-1-methyl-1H-benzimidazole] | 20 | 98 | 19
CNC(=O)NC1CN(c2cc(-c3nc4ccccc4n3C)c(Cl)cn2)C1 [Example A-180, 1-{1-[5-chloro-4-(1-methyl-1H-benzimidazol-2-yl)pyridin-2-yl]azetidin-3-yl}-3-methylurea] | 43 | 89 | 60
Cn1c(-c2ccnc(N3CCC(S(C)(=O)=O)CC3)c2)nc2ccccc21 [Example A-10, 1-methyl-2-{2-[4-(methylsulfonyl)piperidin-1-yl]pyridin-4-yl}-1H-benzimidazole] | 38 | 80 | 95
CC(=O)N[C@H]1[C@@H]2CN(c3cc(-c4nc5ccccc5n4C)c(Cl)cn3)C[C@@H]21 [Example A-9, N-{(1R,5S,6S)-3-[5-chloro-4-(1-methyl-1H-benzimidazol-2-yl)pyridin-2-yl]-3-azabicyclo[3.1.0]hex-6-yl}acetamide] | 23 | 74 | 189
